*1 amine or outer side, *2 acyl side, *3 side chain or, on linkers, in order; H or OH if unused. Where a SMILES comes first, the peptide text is derived from it. [ ]: non-standard residue; d: D form. Phe(4-(trans-4-COOH-cHex)) = N[C@@H](Cc1ccc([C@H]2CC[C@H](C(=O)O)CC2)cc1)C(=O)O; Phe(4-(cis-4-COOH-cHex)) = N[C@@H](Cc1ccc([C@H]2CC[C@@H](C(=O)O)CC2)cc1)C(=O)O; Trp(βS-Me,4-F) = C[C@@H](c1c[nH]c2cccc(F)c12)[C@H](N)C(=O)O; Bip(4'-COOH) = N[C@@H](Cc1ccc(-c2ccc(C(=O)O)cc2)cc1)C(=O)O; X6 = O=C(O)C12CC(c3ccc(C[C@H](N[*:1])C(=O)[*:2])cc3)(C1)C2; X1 = CC(=O)N1CCN(c2ccc(C[C@H](N[*:1])C(=O)[*:2])cn2)CC1; 1Nal(3S-Me) = C[C@@H](c1cccc2ccccc12)[C@H](N)C(=O)O; Ala(indazol-1-yl) = N[C@@H](Cn1ncc2ccccc21)C(=O)O; Trp(6-Cl) = N[C@@H](Cc1c[nH]c2cc(Cl)ccc12)C(=O)O; Phe(4-COOH) = N[C@@H](Cc1ccc(C(=O)O)cc1)C(=O)O; Trp(6-F) = N[C@@H](Cc1c[nH]c2cc(F)ccc12)C(=O)O; Trp(7-F) = N[C@@H](Cc1c[nH]c2c(F)cccc12)C(=O)O; Trp(7-Me) = Cc1cccc2c(C[C@H](N)C(=O)O)c[nH]c12; h3Pal(5-CN) = N#Cc1cncc(CC[C@H](N)C(=O)O)c1; Pro(4R-NH2) = N[C@H]1CN[C@H](C(=O)O)C1; hTyr = N[C@@H](CCc1ccc(O)cc1)C(=O)O; hCha = N[C@@H](CCC1CCCCC1)C(=O)O; 4Pal = N[C@@H](Cc1ccncc1)C(=O)O; Cha = N[C@@H](CC1CCCCC1)C(=O)O; dDab = NCC[C@@H](N)C(=O)O; Orn = NCCC[C@H](N)C(=O)O; dNMeA = CN[C@H](C)C(=O)O
These compounds were tested against T1, Recombinant human IL-1β (Homo sapiens, UniProt P01584) (assay: IL-6 assay in MRC5 cells: inhibition of IL-1β induced IL-6 secretion (AlphaLISA)). Settings: inhibition of IL-1β induced IL-6 secretion in MRC5 cells; read-out: MRC5 IC50.
T1 construct: purchased BioLegend 579404
T1 sequence (P01584 117-269): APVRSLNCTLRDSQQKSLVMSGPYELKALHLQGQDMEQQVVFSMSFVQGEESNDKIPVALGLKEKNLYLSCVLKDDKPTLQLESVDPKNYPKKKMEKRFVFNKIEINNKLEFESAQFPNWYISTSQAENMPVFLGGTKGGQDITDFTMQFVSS
Format: cell-based
Procedure, shortened: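 IL-1β at 2×EC80 in seeding medium (EMEM, 0.025% BSA) preincubated 1 h at ambient temperature with compound, then 3000 MRC5 cells/well added and incubated overnight at 37 °C, 5% CO2. IL-6 in conditioned medium quantified by AlphaLISA; IC50 from 4-parameter logistic fit.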

CC(=O)N1CCN(c2ccc(C[C@@H]3NC(=O)[C@H](CCC4CCCCC4)NC(=O)[C@@H](C)NC(=O)[C@H](CC(C)C)NC(=O)[C@H](CCCN)NC(=O)[C@H](Cc4ccc(-c5ccc(C(=O)O)cc5)cc4)NC(=O)CNC(=O)[C@@H](C)N(C)C(=O)[C@H](CC(=O)O)NC(=O)[C@H]([C@@H](C)c4cccc5ccccc45)NC(=O)[C@@H]4C[C@@H](N)CN4C(=O)CNC(=O)[C@H](Cc4ccc(C(=O)O)cc4)NC(=O)[C@H](Cc4c[nH]c5ccccc45)NC3=O)cn2)CC1 [Example 182] (cyclo([X1]W[Phe(4-COOH)]G[Pro(4R-NH2)][1Nal(3S-Me)]D[dNMeA]G[Bip(4'-COOH)][Orn]L[dA][hCha])) and CC(=O)N1CCN(c2ccc(C[C@@H]3NC(=O)[C@H](CCc4cncc(C#N)c4)NC(=O)[C@@H](C)NC(=O)[C@H](CC(C)C)NC(=O)[C@H](CCC(N)=O)NC(=O)[C@H](Cc4ccc(-c5ccc(C(=O)O)cc5)cc4)NC(=O)CNC(=O)[C@@H](C)N(C)C(=O)[C@H](CC(=O)O)NC(=O)[C@H]([C@@H](C)c4cccc5ccccc45)NC(=O)[C@@H]4C[C@@H](N)CN4C(=O)CNC(=O)[C@H](Cc4ccc(C(=O)O)cc4)NC(=O)[C@H](Cc4c[nH]c5ccccc45)NC3=O)cn2)CC1 [Example 183] (cyclo([X1]W[Phe(4-COOH)]G[Pro(4R-NH2)][1Nal(3S-Me)]D[dNMeA]G[Bip(4'-COOH)]QL[dA][h3Pal(5-CN)])) are the same in IC50: 0.013 nM for the first, 0.013 nM for the second.

CC(C)C[C@@H]1NC(=O)[C@H](CCCCN)NC(=O)[C@H](Cc2ccc(-c3ccc(C(=O)O)cc3)cc2)NC(=O)CNC(=O)[C@@H](C)N(C)C(=O)[C@H](CC(=O)O)NC(=O)[C@H]([C@@H](C)c2c[nH]c3cccc(F)c23)NC(=O)[C@@H]2C[C@@H](N)CN2C(=O)CNC(=O)[C@H](Cc2ccc(C(=O)O)cc2)NC(=O)[C@H](Cc2c[nH]c3cc(Cl)ccc23)NC(=O)[C@H](Cc2ccc(-c3ccc(C(=O)O)cc3)cc2)NC(=O)[C@H](CCc2ccc(O)cc2)NC(=O)[C@@H](C)NC1=O [Example 184] (cyclo([Bip(4'-COOH)][Trp(6-Cl)][Phe(4-COOH)]G[Pro(4R-NH2)][Trp(βS-Me,4-F)]D[dNMeA]G[Bip(4'-COOH)]KL[dA][hTyr])) and CC(C)C[C@@H]1NC(=O)[C@H](CCCCN)NC(=O)[C@H](Cc2ccc(-c3ccc(C(=O)O)cc3)cc2)NC(=O)CNC(=O)[C@@H](C)N(C)C(=O)[C@H](CC(=O)O)NC(=O)[C@H]([C@@H](C)c2c[nH]c3cccc(F)c23)NC(=O)[C@@H]2C[C@@H](N)CN2C(=O)CNC(=O)[C@H](Cc2ccc(C(=O)O)cc2)NC(=O)[C@H](Cc2c[nH]c3c(F)cccc23)NC(=O)[C@H](Cc2ccc(-c3ccc(C(=O)O)cc3)cc2)NC(=O)[C@H](CCc2ccc(O)cc2)NC(=O)[C@@H](C)NC1=O [Example 185] (cyclo([Bip(4'-COOH)][Trp(7-F)][Phe(4-COOH)]G[Pro(4R-NH2)][Trp(βS-Me,4-F)]D[dNMeA]G[Bip(4'-COOH)]KL[dA][hTyr])) are within 1.5-fold of each other in IC50: 0.018 nM for the first, 0.024 nM for the second.

Compared with Cc1cccc2c(C[C@@H]3NC(=O)[C@H](Cc4ccc(-c5ccc(C(=O)O)cc5)cc4)NC(=O)[C@H](CCc4ccc(O)cc4)NC(=O)[C@@H](C)NC(=O)[C@H](CC(C)C)NC(=O)[C@H](CCCCN)NC(=O)[C@H](Cc4ccc(-c5ccc(C(=O)O)cc5)cc4)NC(=O)CNC(=O)[C@@H](C)N(C)C(=O)[C@H](CC(=O)O)NC(=O)[C@H]([C@@H](C)c4c[nH]c5cccc(F)c45)NC(=O)[C@@H]4C[C@@H](N)CN4C(=O)CNC(=O)[C@H](Cc4ccc(C(=O)O)cc4)NC3=O)c[nH]c12 [Example 186] (cyclo([Bip(4'-COOH)][Trp(7-Me)][Phe(4-COOH)]G[Pro(4R-NH2)][Trp(βS-Me,4-F)]D[dNMeA]G[Bip(4'-COOH)]KL[dA][hTyr])), CC(=O)NCCCC[C@H]1NC(=O)[C@H](CC(C)C)NC(=O)[C@H](CCCCN)NC(=O)[C@H](Cc2ccc(-c3ccc(C(=O)O)cc3)cc2)NC(=O)CNC(=O)[C@@H](C)N(C)C(=O)[C@H](CC(=O)O)NC(=O)[C@H]([C@@H](C)c2c[nH]c3cccc(F)c23)NC(=O)[C@@H]2C[C@@H](N)CN2C(=O)CNC(=O)[C@H](Cc2ccc(C(=O)O)cc2)NC(=O)[C@H](Cc2c[nH]c3ccccc23)NC(=O)[C@H](Cc2ccc(-c3ccc(C(=O)O)cc3)cc2)NC(=O)[C@H](CCc2ccc(O)cc2)NC1=O [Example 187] (cyclo([Bip(4'-COOH)]W[Phe(4-COOH)]G[Pro(4R-NH2)][Trp(βS-Me,4-F)]D[dNMeA]G[Bip(4'-COOH)]KL[dK](Ac)[hTyr])) is 4.2-fold lower in IC50: 0.038 nM for the first, 0.009 nM for the second. The second is the more potent here.

C[C@@H]1C(=O)NCC(=O)N[C@@H](Cc2ccc(-c3ccc(C(=O)O)cc3)cc2)C(=O)N[C@@H](Cn2ncc3ccccc32)C(=O)NCC(=O)N[C@H](CCN)C(=O)N[C@@H](CCC2CCCCC2)C(=O)N[C@@H](Cc2ccc(C34CC(C(=O)O)(C3)C4)cc2)C(=O)N[C@@H](Cc2c[nH]c3ccccc23)C(=O)N[C@@H](Cc2ccc(C(=O)O)cc2)C(=O)NCC(=O)N2C[C@H](N)C[C@H]2C(=O)N[C@@H]([C@@H](C)c2cccc3ccccc23)C(=O)N[C@@H](CC(=O)O)C(=O)N1C [Example 188] (cyclo([X6]W[Phe(4-COOH)]G[Pro(4R-NH2)][1Nal(3S-Me)]D[dNMeA]G[Bip(4'-COOH)][Ala(indazol-1-yl)]G[dDab][hCha])) and C[C@@H]1C(=O)NCC(=O)N[C@@H](Cc2ccc(-c3ccc(C(=O)O)cc3)cc2)C(=O)N[C@@H](CC2CCCCC2)C(=O)NCC(=O)N[C@H](CCN)C(=O)N[C@@H](CCc2ccc(O)cc2)C(=O)N[C@@H](Cc2ccc(C34CC(C(=O)O)(C3)C4)cc2)C(=O)N[C@@H](Cc2c[nH]c3ccccc23)C(=O)N[C@@H](Cc2ccc(C(=O)O)cc2)C(=O)NCC(=O)N2C[C@H](N)C[C@H]2C(=O)N[C@@H]([C@@H](C)c2cccc3ccccc23)C(=O)N[C@@H](CC(=O)O)C(=O)N1C [Example 190] (cyclo([X6]W[Phe(4-COOH)]G[Pro(4R-NH2)][1Nal(3S-Me)]D[dNMeA]G[Bip(4'-COOH)][Cha]G[dDab][hTyr])) are within 1.5-fold of each other in IC50: 0.016 nM for the first, 0.018 nM for the second.

C[C@@H]1C(=O)NCC(=O)N[C@@H](Cc2ccc(-c3ccc(C(=O)O)cc3)cc2)C(=O)N[C@@H](CC2CCCCC2)C(=O)NCC(=O)N[C@H](CCN)C(=O)N[C@@H](CCC2CCCCC2)C(=O)N[C@@H](Cc2ccc(C34CC(C(=O)O)(C3)C4)cc2)C(=O)N[C@@H](Cc2c[nH]c3ccccc23)C(=O)N[C@@H](Cc2ccc(C(=O)O)cc2)C(=O)NCC(=O)N2C[C@H](N)C[C@H]2C(=O)N[C@@H]([C@@H](C)c2cccc3ccccc23)C(=O)N[C@@H](CC(=O)O)C(=O)N1C [Example 189] (cyclo([X6]W[Phe(4-COOH)]G[Pro(4R-NH2)][1Nal(3S-Me)]D[dNMeA]G[Bip(4'-COOH)][Cha]G[dDab][hCha])) and C[C@@H]1C(=O)NCC(=O)N[C@@H](Cc2ccc(-c3ccc(C(=O)O)cc3)cc2)C(=O)N[C@@H](Cc2ccncc2)C(=O)NCC(=O)N[C@H](CCN)C(=O)N[C@@H](CCC2CCCCC2)C(=O)N[C@@H](Cc2ccc([C@H]3CC[C@@H](C(=O)O)CC3)cc2)C(=O)N[C@@H](Cc2c[nH]c3ccccc23)C(=O)N[C@@H](Cc2ccc(C(=O)O)cc2)C(=O)NCC(=O)N2C[C@H](N)C[C@H]2C(=O)N[C@@H]([C@@H](C)c2cccc3ccccc23)C(=O)N[C@@H](CC(=O)O)C(=O)N1C [Example 191] (cyclo([Phe(4-(cis-4-COOH-cHex))]W[Phe(4-COOH)]G[Pro(4R-NH2)][1Nal(3S-Me)]D[dNMeA]G[Bip(4'-COOH)][4Pal]G[dDab][hCha])) are the same in IC50: 0.019 nM for the first, 0.019 nM for the second.

Compared with C[C@@H]1C(=O)NCC(=O)N[C@@H](Cc2ccc(-c3ccc(C(=O)O)cc3)cc2)C(=O)N[C@@H](Cc2ccncc2)C(=O)NCC(=O)N[C@H](CCN)C(=O)N[C@@H](CCC2CCCCC2)C(=O)N[C@@H](Cc2ccc([C@H]3CC[C@H](C(=O)O)CC3)cc2)C(=O)N[C@@H](Cc2c[nH]c3cc(F)ccc23)C(=O)N[C@@H](Cc2ccc(C(=O)O)cc2)C(=O)NCC(=O)N2C[C@H](N)C[C@H]2C(=O)N[C@@H]([C@@H](C)c2cccc3ccccc23)C(=O)N[C@@H](CC(=O)O)C(=O)N1C [Example 192] (cyclo([Phe(4-(trans-4-COOH-cHex))][Trp(6-F)][Phe(4-COOH)]G[Pro(4R-NH2)][1Nal(3S-Me)]D[dNMeA]G[Bip(4'-COOH)][4Pal]G[dDab][hCha])), C[C@@H]1C(=O)NCC(=O)N[C@@H](Cc2ccc(-c3ccc(C(=O)O)cc3)cc2)C(=O)N[C@@H](Cc2ccncc2)C(=O)NCC(=O)N[C@H](CCN)C(=O)N[C@@H](CCC2CCCCC2)C(=O)N[C@@H](Cc2ccc([C@H]3CC[C@H](C(=O)O)CC3)cc2)C(=O)N[C@@H](Cc2c[nH]c3ccccc23)C(=O)N[C@@H](Cc2ccc(C(=O)O)cc2)C(=O)NCC(=O)N2C[C@H](N)C[C@H]2C(=O)N[C@@H]([C@@H](C)c2cccc3ccccc23)C(=O)N[C@@H](CC(=O)O)C(=O)N1C [Example 196] (cyclo([Phe(4-(trans-4-COOH-cHex))]W[Phe(4-COOH)]G[Pro(4R-NH2)][1Nal(3S-Me)]D[dNMeA]G[Bip(4'-COOH)][4Pal]G[dDab][hCha])) is 2-fold higher in IC50: 0.015 nM for the first, 0.03 nM for the second. The first is the more potent here.

C[C@@H]1C(=O)NCC(=O)N[C@@H](Cc2ccc(-c3ccc(C(=O)O)cc3)cc2)C(=O)N[C@@H](Cc2ccncc2)C(=O)N[C@@H](CO)C(=O)N[C@H](CCN)C(=O)N[C@@H](CCC2CCCCC2)C(=O)N[C@@H](Cc2ccc([C@H]3CC[C@H](C(=O)O)CC3)cc2)C(=O)N[C@@H](Cc2c[nH]c3cc(F)ccc23)C(=O)N[C@@H](Cc2ccc(C(=O)O)cc2)C(=O)NCC(=O)N2C[C@H](N)C[C@H]2C(=O)N[C@@H]([C@@H](C)c2cccc3ccccc23)C(=O)N[C@@H](CC(=O)O)C(=O)N1C [Example 193] (cyclo([Phe(4-(trans-4-COOH-cHex))][Trp(6-F)][Phe(4-COOH)]G[Pro(4R-NH2)][1Nal(3S-Me)]D[dNMeA]G[Bip(4'-COOH)][4Pal]S[dDab][hCha])) was tested, and the IC50 was 0.012 nM.

From patent US20230406885A1, “CYCLIC PEPTIDES FOR TRAPPING INTERLEUKIN-1 BETA” (MERCK SHARP & DOHME LLC, priority 2022, published 2023)
